Laboratory results from ChEMBL document CHEMBL1156429 (J Biol Chem, 2007).
Counter-ions that a name gives are not always drawn. Activity calls are given as the source filed them. The calls are words filed in the database; no cut-off is given here.

Assays:
Homo sapiens = species: Homo sapiens; assay: Growth inhibition of normal human hematopoietic progenitor cells by colony forming assay; format: functional
[1] = Growth inhibition of JAK2 V617F mutant expressing hematopoietic progenitor cells isolated from polycythemia vera patient by colony forming assay; format: functional, cell-based; conditions: Homo sapiens
Polycythemia vera [2] = assay: Growth inhibition of JAK2 V617F mutant expressing human polycythemia vera hematopoietic progenitor cells at 5 uM by erythroid burst-forming unit assay; format: functional, cell-based
Polycythemia vera [3] = assay: Growth inhibition of JAK2 V617F mutant deficient human polycythemia vera hematopoietic progenitor cells at 5 uM by erythroid burst-forming unit assay; format: functional, cell-based
[4] = Growth inhibition of JAK2 V617F mutant expressing human erythroleukemia cells after 24 hrs; format: functional, cell-based; conditions: Leukemia cell
[5] = Growth inhibition of mouse erythroleukemia cells after 24 hrs; format: functional, cell-based; conditions: Leukemia cell
Jurkat = assay: Growth inhibition of human Jurkat cells after 24 hrs; format: functional, cell-based
[6] = Inhibition of formation of erythroid burst-forming units in human polycythemia vera cells at 1 uM; conditions: read-out: INH

IC50 (Jurkat) [nM] | SMILES | Activity (Homo sapiens) | IC50 [1] [nM] | Activity (Polycythemia vera [2]) | Activity (Polycythemia vera [3]) | IC50 [4] [nM] | IC50 [5] [nM] | inhibition at 1 µM [6] [%]
2000 | C#Cc1cccc(Nc2ncnc3cc(OCCOC)c(OCCOC)cc23)c1 [ERLOTINIB] | inactive | 5000 | Active | inactive | 2000 | 2000 | –
– | Cc1ccc(NC(=O)c2ccc(CN3CCN(C)CC3)cc2)cc1Nc1nccc(-c2cccnc2)n1 [IMATINIB MESYLATE] | – | – | – | – | – | – | 73
